Reference: patent EP2926811A1, “ARTEMETHER-CONTAINING PHARMACEUTICAL COMPOSITION, PREPARATION, AND USE THEREOF” (Kunming Pharmaceutical Corp., priority 2012, dated 2014)
Read-outs that look alike come from different tables or passages of the source.

Assays:
Assay type in all cases: cell-based
K562 cells = experiment: modified MTT method, proliferation of K562 cells; conditions: Homo sapiens, read-out: IC50 on the growth of K562 cells
Experimental: (§1) Five test concentrations 2, 10, 50, 250 and 500 µM were set for each of five derivatives of artemisinin, artemether drug substance, artemisinin, dihydroartemisinin, artesunate were dissolved with dimethyl sulfoxide (DMSO), while the lyophilized powder of artemether was dissolved with normal saline (N.S.), followed by addition of a certain amount of RPMI 1640 complete culture solution to formulate a high-concentration solution, and each of the low-concentration solutions was formulated by proportionate dilution from the high-concentration solution.
(§2) The concentrations of DMSO contained in the solutions at the two relatively high concentrations 500 and 250 µM for the artemether drug substance, artemisinin, dihydroartemisinin, artesunate, used as solvent controls, were formulated with […] culture solution, at which time the test concentrations of DMSO were 1% and 0.5%. The concentrations of the excipients contained in the solutions at the two relatively high concentrations 500 and 250 µM for the preparation of lyophilized powder of artemether were used as solvent controls.
(§3) The positive control was an anti-cancer drug adriamycin (ADM), which was set at three test concentrations (final concentrations) of 0.1, 1 and 10 µg/ml. To ADM stock solution (1 mg/ml) a certain amount of PRMI 1640 complete culture solution was added, to formulate a high-concentration solution, and each of the low-concentration solutions were formulated by proportionate dilutions from the high-concentration solution.
(§4) HL-60: (human promyelocytic leukemia cell line); K562 (human chronic myelocytic leukemia cell line); HT-29 (human colon cancer cell line); PC-3 (human prostate cancer cell line); A549 (human non-small cell lung cancer cell line); MKN-28 (human gastric cancer cell line); Hep2 (human laryngeal cancer cell line), all of which were purchased from Cell Bank of Shanghai Institutes for Biological Sciences, the Chinese Academy of Sciences.
(§5) Influence of the five test samples on the proliferation of 7 human tumor cell lines was determined via a modified MTT method.
(§6) Cells in logarithmic growth phase were taken, adjusted to a certain concentration and then added into a 96 well culture plate. After culture of adherent cells for a period until adherence, the test samples were added; and for suspension cells, the test samples were added after inoculation. 5 test concentrations 2, 10, 50, 250 and 500 µM were set, with 3 parallel wells for each concentration, 10 µl/well; the solvent controls were 0.5% and 1% of isovolumetric DMSO, and the positive controls was ADM at 3 concentrations 0.1, 1 and 10 µg/ml. The samples were loaded followed by culture for a period of time in an incubator at 37°C, 5% CO2, followed by addition of MTT (5 mg/ml) at 20 µl/well, and continued to be cultured for a period of time and added with a three-combined solution [10% SDS - 5% isobutanol - 0.012 mol/L HCl (W/V/V)]. After dissolving in uniformity, it was continued to be placed in the incubator at 37°C, 5% CO2 for a period of time, and the OD value of each well was determined under a wavelength of 570 nm with a microplate reader, according to which the results were calculated.
(§7) The cellular proliferation inhibition rate was calculated in accordance with the following equation: Inhibition rate (%) = (OD valuecontrol well-OD valuesample well)/OD valuecontrol well × 100% [formula]
(§8) When the inhibition rate of DMSO on cells was more than 15%, calculation was carried out using the following equation: Inhibition rate (%) = (OD valuesolvent group-OD valueadministered well)/OD valuesolvent group × 100% [formula]
(§9) The inhibition rate was calculated by using Microsoft Excel 2003, and median inhibitory concentration IC50 was calculated with a LOGIT method, which was used as an indicator for judging the inhibitory capability.

HL-60 cells = experiment: modified MTT method, proliferation of HL-60 cells; conditions: Homo sapiens, read-out: IC50 on the growth of HL-60 cells
Experimental: as §1, §2, §3, §4, §5, §6, §7, §8, §9

A549 cells = experiment: modified MTT method, proliferation of A549 cells; conditions: Homo sapiens, read-out: IC50 on the growth of A549 cells
Experimental: as §1, §2, §3, §4, §5, §6, §7, §8, §9

HT-29 cells = experiment: modified MTT method, proliferation of HT-29 cells; conditions: Homo sapiens
Experimental: as §1, §2, §3, §4, §5, §6, §7, §8, §9
(§10) According to the results of preliminary screening, further experiments were adjusted such that more sensitive cell lines were screened out. […]

PC-3 cells = experiment: modified MTT method, proliferation of PC-3 cells; conditions: Homo sapiens, read-out: IC50 on the growth of PC-3 cells
Experimental: as §1, §2, §3, §4, §5, §6, §7, §8, §9

MKN-28 cells = experiment: modified MTT method, proliferation of MKN-28 cells; conditions: Homo sapiens, MKN-28, 72 h, secondary screening
Experimental: as §1, §2, §3, §4, §5, §6, §7, §8, §9, §10

Hep2 cells = experiment: modified MTT method, proliferation of Hep2 cells; conditions: Homo sapiens, HEp-2, 72 h, secondary screening
Experimental: as §1, §2, §3, §4, §5, §6, §7, §8, §9, §10

7 human tumor cell lines = experiment: modified MTT method, summary over the panel of human tumor cell lines; conditions: on HL-60, K562, MKN-28
Source text: as §4, §5
Cells in logarithmic growth phase were taken, adjusted to a certain concentration and then added into a 96 well culture plate. After culture of adherent cells for a period until adherence, the test samples were added; and for suspension cells, the test samples were added after inoculation. […] After dissolving in uniformity, it was continued to be placed in the incubator at 37°C, 5% CO2 for a period of time, and the OD value of each well was determined under a wavelength of 570 nm with a microplate reader, according to which the results were calculated.
as §9

IC50 (K562 cells; K562, 24 h, Batch 1, 24 h): > 1000 µM
IC50 (K562 cells; K562, 24 h, Batch 2, 24 h): > 1000 µM
IC50 (K562 cells; K562, 24 h, Batch 3, 24 h): 494 µM
IC50 (K562 cells; K562, 48 h, Batch 1, 48 h): 322 µM
IC50 (K562 cells; K562, 48 h, Batch 2, 48 h): > 1000 µM
IC50 (K562 cells; K562, 48 h, Batch 3, 48 h): 141 µM
IC50 (K562 cells; K562, 72 h, Batch 1, 72 h): 39.3 µM
IC50 (K562 cells; K562, 72 h, Batch 2, 72 h): > 1000 µM
IC50 (K562 cells; K562, 72 h, Batch 3, 72 h): 90.1 µM
IC50 (HL-60 cells; HL-60, 24 h, Batch 1, 24 h): > 1000 µM
IC50 (HL-60 cells; HL-60, 24 h, Batch 2, 24 h): 269 µM
IC50 (HL-60 cells; HL-60, 48 h, Batch 1, 48 h): > 1000 µM
IC50 (HL-60 cells; HL-60, 48 h, Batch 2, 48 h): 39.5 µM
IC50 (HL-60 cells; HL-60, 72 h, Batch 1, 72 h): > 1000 µM
IC50 (HL-60 cells; HL-60, 72 h, Batch 2, 72 h): 145 µM
IC50 (A549 cells; A549, 24 h, Batch 1, 24 h): > 1000 µM
IC50 (A549 cells; A549, 24 h, Batch 2, 24 h): > 1000 µM
IC50 (A549 cells; A549, 48 h, Batch 1, 48 h): > 1000 µM
IC50 (A549 cells; A549, 48 h, Batch 2, 48 h): 272 µM
IC50 (A549 cells; A549, 72 h, Batch 1, 72 h): > 1000 µM
IC50 (A549 cells; A549, 72 h, Batch 2, 72 h): 225 µM
IC50 (HT-29 cells; HT-29, 24 h, preliminary screening, Batch 1, 24 h, read-out: IC50 on the growth of HT-29 cells): > 1000 µM
IC50 (HT-29 cells; HT-29, 24 h, preliminary screening, Batch 2, 24 h, read-out: IC50 on the growth of HT-29 cells): 323 µM
IC50 (HT-29 cells; HT-29, 48 h, preliminary screening, Batch 1, 48 h, read-out: IC50 on the growth of HT-29 cells): > 1000 µM
IC50 (HT-29 cells; HT-29, 48 h, preliminary screening, Batch 2, 48 h, read-out: IC50 on the growth of HT-29 cells): > 1000 µM
IC50 (HT-29 cells; HT-29, 72 h, preliminary screening, Batch 1, 72 h, read-out: IC50 on the growth of HT-29 cells): > 1000 µM
IC50 (HT-29 cells; HT-29, 72 h, preliminary screening, Batch 2, 72 h, read-out: IC50 on the growth of HT-29 cells): 438 µM
IC50 (HT-29 cells; HT-29, 72 h, secondary screening, 72 h, Batch 1, read-out: IC50 on the growth of HT-29 cells (72 h)): 328 µM
IC50 (HT-29 cells; HT-29, 72 h, secondary screening, 72 h, Batch 2, read-out: IC50 on the growth of HT-29 cells (72 h)): 306 µM
IC50 (HT-29 cells; HT-29, 72 h, secondary screening, 72 h, Batch 3, read-out: IC50 on the growth of HT-29 cells (72 h)): 200 µM
IC50 (HT-29 cells; HT-29, 72 h, secondary screening, 72 h, average, read-out: IC50 on the growth of HT-29 cells (72 h)): 225 µM
IC50 (PC-3 cells; PC-3, 24 h, Batch 1, 24 h): > 1000 µM
IC50 (PC-3 cells; PC-3, 24 h, Batch 2, 24 h): > 1000 µM
IC50 (PC-3 cells; PC-3, 48 h, Batch 1, 48 h): > 1000 µM
IC50 (PC-3 cells; PC-3, 48 h, Batch 2, 48 h): > 1000 µM
IC50 (PC-3 cells; PC-3, 72 h, Batch 1, 72 h): > 1000 µM
IC50 (PC-3 cells; PC-3, 72 h, Batch 2, 72 h): > 1000 µM
IC50 (MKN-28 cells; Average, read-out: IC50 on the growth of MKN-28 cells (72 h)): 27.9 µM
IC50 (MKN-28 cells; Batch 1, read-out: IC50 on the growth of MKN-28 cells (72 h)): 35.3 µM
IC50 (MKN-28 cells; Batch 2, read-out: IC50 on the growth of MKN-28 cells (72 h)): 28.1 µM
IC50 (MKN-28 cells; Batch 3, read-out: IC50 on the growth of MKN-28 cells (72 h)): 21.4 µM
Structure (SMILES): C[C@H]1[C@H](OC(=O)CCC(=O)O)O[C@@H]2O[C@@]3(C)CC[C@H]4[C@H](C)CC[C@@H]1[C@@]24OO3 [artesunate]
IC50 (Hep2 cells; Batch 1, read-out: IC50 on the growth of Hep2 cells (72 h)): 119 µM
IC50 (Hep2 cells; Batch 2, read-out: IC50 on the growth of Hep2 cells (72 h)): 93.2 µM
IC50 (Hep2 cells; Batch 3, read-out: IC50 on the growth of Hep2 cells (72 h)): 212 µM
IC50 (Hep2 cells; average, read-out: IC50 on the growth of Hep2 cells (72 h)): 149 µM
inhibitory effect in vitro (7 human tumor cell lines): only shows inhibitory effect
